From US20060148828A1, “Combination comprising a CDK inhibitor and a topoisomerase 1 inhibitor for the treatment of cancer and other proliferative diseases” (Cyclacel Limited, priority 2003, published 2006)
“And” between values parts separate entries of the source, which are not always exact repeats. Equal values may be shown once.

Assays:
[1] = system: HT29 colon tumor xenografts; test: In vivo drug efficacy on xenografts in nude mice; parameters: species or system Swiss nu/nu mice; settings: for CR nb (complete regression) / Cures nb (tumour-free mice at end) / PR nb (partial response): 9 mice; for TGI % (day): day 21; for Calc growth delay (TGD treated − TGD control): doses as in Treatment column; for Fraction T/C (treated RTV/control RTV × 100): mouse, in vivo
in vivo = settings: Swiss nu/nu, mouse, po
[2] = alone or in combination with chemotherapy, three to six 4-day cycles
[3] = system: wt-p53 HT29-A4 xenografts; test: Antitumor effects on xenografts in nude mice; format: in vivo, Swiss nu/nu mice; settings: for TGI, tumor growth inhibition: at sacrifice of first control mouse
wt-p53 HT29-A4 cells [4] = settings: 1 μM CPT-11 for 72 h, synchronized cells
Method: (§1) Cells were maintained in DMEM medium supplemented with 10% fetal calf serum, and under continuous selection with geneticin for the wt-p53 HT29-A4 cell line.
(§2) Cells were synchronized in G0/G1 by serum starvation for 48 h. Addition of serum and fresh medium released cells from the block and promoted them to cycle. Cell cycle progression was analyzed by BrdU (5-bromo-2′-deoxiuridine; Sigma) incorporation as described (13).

wt-p53 HT29-A4 cells [5] = test: Western blot of apoptosis markers (PARP p85, cleaved caspase-3); format: cell-based, human; settings: 1 μM CPT-11 for 72 h
wt-p53 HT29-A4 cells [6] = test: Cell cycle progression (BrdU incorporation); settings: 1 μM CPT-11, up to 36 h, G0/G1 synchronized cells
Method: as §1, §2

[7] = CPT-11 40 mg/kg/day i.p., 8 mice per group

CC[C@H](CO)Nc1nc(NCc2ccccc2)c2ncn(C(C)C)c2n1 [roscovitine, 6-benzylamino-2-[(R)-1-ethyl-2-hydroxyethylamino]-9-isopropylpurine]
antitumour activity as single agent ([1]; 400 mg/kg/day for up to six weeks): did not show antitumour activity | CR nb (complete regression) [1]: 0 | Cures nb (tumour-free mice at end) [1]: 0 | PR nb (partial response) [1]: 0 | TGI % (day) [1]: 30.4% | Calc growth delay (TGD treated − TGD control) [1]: 3 days | Fraction T/C (treated RTV/control RTV × 100) [1]: 69.6 | MTD (in vivo): 400 mg/kg/day | tolerance [2]: well tolerated

CCc1c2c(nc3ccc(OC(=O)N4CCC(N5CCCCC5)CC4)cc13)-c1cc3c(c(=O)n1C2)COC(=O)[C@]3(O)CC [CPT-11, irinotecan]
Growth delay (treated/control TGT difference) ([3]; CPT-11 10 mg/kg/day i.p.): 10 days | No. PR (partial response) ([3]; CPT-11 10 mg/kg/day i.p., 10 mice per group): 8 | TGI, tumor growth inhibition ([3]; CPT-11 10 mg/kg/day i.p.): 60% | Growth delay (treated/control TGT difference) ([3]; CPT-11 40 mg/kg/day i.p.): 22 days | No. PR (partial response) [3, 7]: 7 | No. cures (tumor-free mice at end of experiment) [3, 7]: 1 | TGI, tumor growth inhibition ([3]; CPT-11 40 mg/kg/day i.p., 40 mg/kg/day): 87% and 86% | survival score of mice (tumors reaching 2000 mm3 as a function of time) ([3]; CPT-11 at both doses (10 and 40 mg/kg/day)): significantly increased the survival score | CR nb (complete regression) [1]: 0 | Cures nb (tumour-free mice at end) [1]: 0 | PR nb (partial response) [1]: 0 | response of mut-p53 xenografts to CPT-11 ([1]; CPT-11 10 and 40 mg/kg/day i.p., data not shown): no response | TGI % (day) [1]: 61.6% | Calc growth delay (TGD treated − TGD control) [1]: 12.6 days | Fraction T/C (treated RTV/control RTV × 100) [1]: 38.4 | cell proliferation versus untreated cells and mut-p53 cells (wt-p53 HT29-A4 cells [4]): significantly decreased cell proliferation | apoptosis (PARP p85 fragment, caspase-3 activation) (wt-p53 HT29-A4 cells [5]): increased apoptosis | cell cycle blockage (wt-p53 HT29-A4 cells [6]): blocked in early S phase
